{"source": "patent US20070048738A1", "about": "“Methods and compositions for diagnosis, staging and prognosis of prostate cancer” (Mayo Foundation for Medical Education and Research, priority 2003, published 2007)", "key": {"ZNF185": {"test_system": "ZNF185", "test": "ZNF185 mRNA expression in prostate cancer cell lines after 5-Aza-CdR treatment (Taqman real-time PCR)", "assay_type": "cell-based, human", "settings": "LAPC4, LNCaP and PC3 prostate cancer cell lines; 6 μM 5-Aza-CdR for 6 days; versus untreated cells"}, "[1]": {"test_system": "ZNF185 5′ CpG dinucleotides of genomic DNA", "test": "Methylation specific PCR (MSP) of ZNF185 DNA in prostate cell lines with or without 5-Aza-CdR", "assay_type": "cell-based, human", "settings": "prostate cancer cell lines with 5-Aza-CdR treatment versus without", "experimental": "DNA isolation and Bisulfite modification. Genomic DNA was obtained from metastatic, primary, matched benign prostatic tissues and the above mentioned prostate cancer cell lines treated with 5-Aza-CdR, using Wizard® genomic DNA purification kit according to the manufacturer's protocol (Promega, Madison, Wis.). Genomic DNA (100 ng) was modified by sodium bisulfite treatment by converting unmethylated, but not methylated, cytosines to uracil as described previously (Herman et al., Proc. Natl. Acad. Sci. USA 93:9821-9826, 1996). DNA samples were then purified using the spin columns (Qiagen), and eluted in 50 μl of distilled water. Modification was completed by treatment with NaOH (0.3 M final concentration) for 5 min at room temperature, followed by ethanol precipitation. […]\nMethylation Specific PCR (MSP). DNA methylation patterns within the gene were determined by chemical modification of unmethylated cytosine to uracil and subsequent PCR as described previously (Esteller et al., Cancer Res. 61:3225-3229, 2001), using primers specific for either methylated or the modified unmethylated sequences.\nTwo sets of primers were designed corresponding to the genomic positions around 210 and 335. […] One (1) μl of the PCR product was directly loaded onto DNA 500 lab chip and analyzed on Agilent 2100 Bioanalyzer (Agilent Technologies, Palo Alto, Calif.)."}, "SVIL": {"test_system": "SVIL", "test": "SVIL mRNA expression in prostate cancer cell lines after 5-Aza-CdR treatment (TaqMan real-time PCR)", "settings": "6 μM 5-Aza-CdR for 6 days"}, "TU3A": {"test_system": "TU3A", "test": "TU3A mRNA expression in prostate cancer cell lines after 5-Aza-CdR treatment (TaqMan real-time PCR)", "settings": "6 μM 5-Aza-CdR for 6 days"}, "PRIMA1": {"test_system": "PRIMA1", "test": "PRIMA1 mRNA expression in prostate cancer cell lines after 5-Aza-CdR treatment (TaqMan real-time PCR)", "settings": "6 μM 5-Aza-CdR for 6 days"}, "FLJ14084": {"test_system": "FLJ14084", "test": "FLJ14084 mRNA expression in prostate cancer cell lines after 5-Aza-CdR treatment (TaqMan real-time PCR)", "settings": "all three prostate cancer cells (LAPC4, LNCaP, PC3); 6 μM 5-Aza-CdR for 6 days"}, "KIAA1210": {"test_system": "KIAA1210", "test": "KIAA1210 mRNA expression in prostate cancer cell lines after 5-Aza-CdR treatment (TaqMan real-time PCR)", "settings": "LAPC4 and LNCaP cells; 6 μM 5-Aza-CdR for 6 days"}}, "data": [{"smiles": "Nc1ncn([C@H]2C[C@H](O)[C@@H](CO)O2)c(=O)n1", "note": "[5-Aza-CdR, 5-aza-2′-deoxycytidine]", "values": [{"measurement": "increase in mRNA levels of ZNF185", "setting": "ZNF185", "value": "~2.0", "unit": "fold"}, {"measurement": "methylated and unmethylated ZNF185 bands by MSP", "setting": "[1]", "value": "reduction of the methylated band and increase of the unmethylated band"}, {"measurement": "expression of SVIL mRNA levels", "setting": "SVIL; LACaP cells (so in the source)", "value": "not in LACaP"}, {"measurement": "expression of SVIL mRNA levels", "setting": "SVIL; LAPC4 and PC3 cells", "value": "significant increase"}, {"measurement": "TU3A expression levels", "setting": "TU3A; LAPC4 and PC3 cells", "value": "not in LAPC4 and PC3 cells"}, {"measurement": "TU3A expression levels", "setting": "TU3A; LNCaP cells", "value": "significantly increased"}, {"measurement": "expression of PRIMA1 mRNA levels", "setting": "PRIMA1; LACaP cells (so in the source)", "value": "not in LACaP"}, {"measurement": "expression of PRIMA1 mRNA levels", "setting": "PRIMA1; LAPC4 and PC3 cells", "value": "significant increase"}, {"measurement": "expression of FLJ14084 mRNA levels", "setting": "FLJ14084", "value": "significant increase"}, {"measurement": "KIAA1210 mRNA levels", "setting": "KIAA1210", "value": "increased"}]}]}
